The assay has as its target LRRK2 G2019S (Homo sapiens, UniProt Q5S007, G2019S). In words: ADP-Glo Kinase Assay, LRRK2 G2019S. The class given is biochemical. To be noted: 120 min kinase reaction at 25 °C, 10 concentrations, read-out: IC50 (LRRK2 G2019S_ADP-Glo Assay). A general note: In ADP-Glo the light output rises with the ADP produced.

These results are taken from publication PMC13335808 (Advanced Science, 2026).

By IC50 is commonly meant the concentration that inhibits the measured activity by half.

Sequence of LRRK2 G2019S (Q5S007 whole entry G2019S): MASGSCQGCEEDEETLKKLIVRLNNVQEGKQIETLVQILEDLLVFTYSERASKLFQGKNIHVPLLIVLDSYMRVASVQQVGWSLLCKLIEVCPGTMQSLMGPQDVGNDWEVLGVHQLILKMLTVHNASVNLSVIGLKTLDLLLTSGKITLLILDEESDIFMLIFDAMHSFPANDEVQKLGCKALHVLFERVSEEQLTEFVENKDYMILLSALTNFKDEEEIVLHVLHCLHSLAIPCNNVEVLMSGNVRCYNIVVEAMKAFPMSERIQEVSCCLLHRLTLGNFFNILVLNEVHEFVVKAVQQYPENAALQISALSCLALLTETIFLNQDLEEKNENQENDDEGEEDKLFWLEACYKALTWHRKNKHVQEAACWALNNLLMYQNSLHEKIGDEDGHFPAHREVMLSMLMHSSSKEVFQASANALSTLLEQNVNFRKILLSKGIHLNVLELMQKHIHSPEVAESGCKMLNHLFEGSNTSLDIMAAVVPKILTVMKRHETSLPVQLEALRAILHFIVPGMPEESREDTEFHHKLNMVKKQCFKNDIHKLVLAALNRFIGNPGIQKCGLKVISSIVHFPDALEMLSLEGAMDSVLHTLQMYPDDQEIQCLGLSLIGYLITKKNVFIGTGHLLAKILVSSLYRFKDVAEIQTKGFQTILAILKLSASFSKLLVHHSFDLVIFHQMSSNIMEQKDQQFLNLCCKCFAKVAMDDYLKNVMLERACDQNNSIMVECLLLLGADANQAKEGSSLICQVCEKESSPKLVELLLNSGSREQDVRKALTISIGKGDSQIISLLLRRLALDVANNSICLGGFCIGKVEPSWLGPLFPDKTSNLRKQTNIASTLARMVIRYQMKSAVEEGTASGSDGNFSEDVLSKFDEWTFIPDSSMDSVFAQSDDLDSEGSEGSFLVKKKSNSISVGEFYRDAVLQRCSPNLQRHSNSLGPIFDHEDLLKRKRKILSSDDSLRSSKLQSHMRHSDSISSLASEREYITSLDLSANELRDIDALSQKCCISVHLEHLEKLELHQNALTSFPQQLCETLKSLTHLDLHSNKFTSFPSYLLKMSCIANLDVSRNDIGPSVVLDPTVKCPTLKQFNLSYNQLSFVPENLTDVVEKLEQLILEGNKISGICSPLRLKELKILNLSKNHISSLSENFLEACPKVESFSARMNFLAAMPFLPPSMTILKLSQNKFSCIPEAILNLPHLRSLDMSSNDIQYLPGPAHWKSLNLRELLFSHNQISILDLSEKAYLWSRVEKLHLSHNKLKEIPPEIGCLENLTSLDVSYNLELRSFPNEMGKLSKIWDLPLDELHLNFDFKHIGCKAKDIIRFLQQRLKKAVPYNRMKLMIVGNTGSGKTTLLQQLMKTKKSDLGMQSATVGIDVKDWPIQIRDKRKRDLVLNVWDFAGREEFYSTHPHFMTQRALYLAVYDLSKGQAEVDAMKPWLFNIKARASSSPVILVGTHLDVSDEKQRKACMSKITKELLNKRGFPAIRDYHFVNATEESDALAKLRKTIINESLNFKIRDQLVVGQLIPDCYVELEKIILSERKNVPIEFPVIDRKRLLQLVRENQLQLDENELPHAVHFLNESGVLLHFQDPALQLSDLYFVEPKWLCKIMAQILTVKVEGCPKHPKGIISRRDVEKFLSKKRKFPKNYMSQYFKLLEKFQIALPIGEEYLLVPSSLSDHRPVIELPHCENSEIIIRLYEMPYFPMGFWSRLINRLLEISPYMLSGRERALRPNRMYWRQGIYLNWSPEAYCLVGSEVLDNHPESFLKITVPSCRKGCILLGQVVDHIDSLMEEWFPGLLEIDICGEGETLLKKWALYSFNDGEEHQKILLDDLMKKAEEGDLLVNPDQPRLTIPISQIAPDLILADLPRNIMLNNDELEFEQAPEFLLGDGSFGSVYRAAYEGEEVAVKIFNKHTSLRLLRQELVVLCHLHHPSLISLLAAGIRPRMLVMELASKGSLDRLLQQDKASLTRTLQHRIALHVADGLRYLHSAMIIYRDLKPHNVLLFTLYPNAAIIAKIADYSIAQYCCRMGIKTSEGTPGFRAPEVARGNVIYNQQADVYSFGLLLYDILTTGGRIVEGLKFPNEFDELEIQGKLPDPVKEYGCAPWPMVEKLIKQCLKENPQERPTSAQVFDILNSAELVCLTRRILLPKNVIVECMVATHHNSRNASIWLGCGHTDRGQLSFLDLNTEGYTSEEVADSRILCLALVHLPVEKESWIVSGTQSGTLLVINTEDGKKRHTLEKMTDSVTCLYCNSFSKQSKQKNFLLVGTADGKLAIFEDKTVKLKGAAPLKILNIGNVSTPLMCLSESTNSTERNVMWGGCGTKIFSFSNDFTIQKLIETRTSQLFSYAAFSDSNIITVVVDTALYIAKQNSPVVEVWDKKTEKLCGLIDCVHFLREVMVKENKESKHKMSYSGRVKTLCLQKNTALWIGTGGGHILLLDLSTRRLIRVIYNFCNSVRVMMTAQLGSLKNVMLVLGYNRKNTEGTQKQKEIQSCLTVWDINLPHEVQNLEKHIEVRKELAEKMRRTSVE
Protocol: Kinase inhibition assays were performed using the ADP-Glo^TM Kinase Assay (Promega) in 384-well format. A 2× ATP/substrate solution and a 2× kinase solution was prepared in kinase reaction buffer. Compounds were dispensed into the assay plates (100 nL per well) using an Echo 655 acoustic dispenser. Subsequently, 5 μL of the 2× kinase solutions were added to each well, followed by centrifugation at 1000 rpm for 1 min and incubation at 25 °C for 10 min. The kinase reactions were initiated by the addition of 5 μL of the 2× ATP/substrate solution.
Following the kinase reaction, 5 μL of ADP-Glo reagent was added to each well. Plates were centrifuged at 1000 rpm for 1 min and incubated at 25 °C for 60 min to terminate the reaction and deplete unconsumed ATP. […] Luminescence signals were recorded using a BMG plate reader.
The percentage inhibition (inhibition%) was calculated as: […]
IC50 values were determined by nonlinear regression of the inhibition% versus the logarithm of compound concentrations using a four-parameter sigmoidal dose–response model (variable slope) in GraphPad Prism 10.0. […]
Ten different concentrations were tested for each compound. […] Residual kinase activity was determined based on luminescence readouts, and the data were normalized to vehicle (100% activity) and complete inhibition controls (0% activity). […]

Regarding `COc1cc(C(=O)N2CCC(N3CCN(C)CC3)CC2)ccc1Nc1ncc2c(n1)N(C)c1ccccc1C(=O)N2C` [LRRK2-IN-1], the IC50 stood at 5.25 nM.
